Results from patent US20180028487A1, “DERMATOLOGICAL FORMULATIONS OF 2-(2-ETHOXY-2-OXOETHYL)(METHYL)AMINO-2-OXOETHYL 5-(TETRADECYLOXY)FURAN-2-CARBOXYLATE” (Dermira Inc., priority 2016, published 2018).
Each block holds one molecule with its values, some of them ahead of it.

Columns and labels:
[1] = Dose range study, pharmacokinetics: plasma concentrations (Example 5); assay type: in vivo, human; settings: for systemic absorption: topical application at 7.5% strength, twice daily for 12 weeks
Procedure: A subset of study centers enrolled subjects for an assessment of PK. Blood was to be collected from approximately 10 subjects per treatment group. At the Day 1 and Week 8 visits, a predose blood sample was collected prior to the first application of study drug for the day; samples were then collected at 1, 2, 3, and 4 hours after application of study drug.

[2] = cited from earlier work
[3] = Stability studies on non-GMP and GMP material; assay type: physicochemical
Procedure: Stability studies conducted on non-GMP and GMP material have shown chemical stability the compound of Formula (Ia) for 24 months at 5° C. and 25° C./60% Relative Humidity (RH); and for 6 months at 40° C./75% RH.

[4] = Solubility in solvents / vehicle; assay type: physicochemical
Description: In various embodiments, the dermatologically acceptable vehicle comprises dimethyl isosorbide and one or more alcohols. […] DMI is freely miscible with alcohols such as ethanol, isopropanol (IPA), polyols such as polyethylene glycol (PEG 200 or PEG 400), or a mixture thereof. By adjusting the relevant amounts of DMI and the alcohol(s), the solubility and saturation of the active ingredient in the dermatological formulation can be adjusted to maximize the thermodynamic activity of the active ingredient in the gel. In a specific embodiment, the dermatologically acceptable vehicle comprises, by weight ratios, 50 parts ethanol, 20 parts IPA, 15.5 parts PEG400, and 12.5 parts DMI. The vehicle is typically a clear gel, and bears the same appearance with or without the active ingredient.
In certain embodiment, the crystalline product form is a white crystalline solid with a low-melting point (64-66° C.), having solubility of about 90 mg/g (±5 mg/g) in a solvent system comprising Ethanol/IPA/PEG 400/DMI at 50/20/15.5/12.5 (w/w).

[5] = Dose range study, safety and tolerability (Example 5); assay type: in vivo, human; settings: 4.0% QD, 7.5% QD and 7.5% BID, 12-week treatment period
Procedure: Safety was assessed through adverse events (AEs), local skin responses (LSRs, determined by the presence and severity of erythema, dryness, peeling, burning/stinging, and pruritus), laboratory tests (serum chemistry, and hematology), vital signs, and physical examinations.

[6] = test system: acne vulgaris on the face; assay: Dose range study, efficacy (Example 5); assay type: in vivo, human; settings: for LS mean change in noninflammatory lesion counts: Week 12; for LS mean change in inflammatory lesion counts / percentage of subjects achieving minimum 2-grade improvement in IGA score: baseline to Week 12
Procedure: Dose ranges were determined in adult subjects with acne vulgaris on the face. The study was a randomized, vehicle controlled, parallel group study designed to assess the efficacy and safety of the active formulations comprising a compound of Formula (Ia) at a concentration of 7.5% BID, 7.5% QD, and 4.0% QD, respectively. The results were compared to those of vehicle formulation (BID or QD) on subjects with moderate to severe facial acne. A total of 420 adult subjects were randomized to active formulations (7.5% BID, 7.5% QD, and 4.0% QD) and vehicle (BID and QD) in a 2:2:2:1:1 fashion. Study treatments continued for 12 weeks. Subjects returned to the study clinic at Weeks 1, 2 (phone call only), 4, 8 and 12 (study exit). Primary efficacy endpoints for this study were 1) the mean absolute change from baseline to Week 12 in inflammatory and noninflammatory lesion counts and 2) the proportion of subjects who achieved a 2-grade improvement in the IGA from baseline to Week 12. Absolute change from baseline to Week 12 in inflammatory and non-inflammatory lesion counts was analyzed using an analysis of covariance (ANCOVA) model with a factor of treatment and the respective baseline lesion count as a covariate. The proportion of subjects who are dichotomized to success (minimum 2-grade improvement from baseline in IGA score) at Week 12 was analyzed using a Cochran-Mantel-Haenszel (CMH) test. Exploratory analyses were conducted for linearity of a dose response for the proportion of subjects dichotomized to an IGA success.

systemic absorption [1]: little or no
SMILES: CCCCCCCCCCCCCCOc1ccc(C(=O)O)o1 [TOFA, 5-(tetradecyloxy)-2-furoic acid, reference compound]
bioavailability through the skin [2]: poor

plasma concentration of Compound of Formula (Ia) ([1]; Day 1, topical, all but one subject): undetectable
plasma concentration of Compound of Formula (Ia) ([1]; Week 8, all tested subjects): undetectable
concentration at 2 h ([1]; human, plasma, topical, Day 1, one subject, one time point (2 hours post-dosing), read-out: plasma concentration of Compound of Formula (Ia)): 0.304 ng/mL
systemic absorption [1]: little or no
chemical stability ([3]; 5° C.): 24 months
stability of the crystal form ([3]; 5° C.): up to 36 months
stability of the crystal form ([3]; 25° C./60% RH): up to 36 months
chemical stability ([3]; 25° C./60% Relative Humidity (RH)): 24 months
stability of the crystal form ([3]; 30° C./65% RH): up to 27 months
chemical stability ([3]; 40° C./75% RH): 6 months
solubility ([4]; crystalline product form, solvent system Ethanol/IPA/PEG 400/DMI at 50/20/15.5/12.5 (w/w)): about 90 mg/g
solubility ([4]; in dimethyl isosorbide (DMI)): about 125 mg/g
SMILES: CCCCCCCCCCCCCCOc1ccc(C(=O)OCC(=O)N(C)CC(=O)OCC)o1 [Formula (Ia), 2-((2-ethoxy-2-oxoethyl)(methyl)amino)-2-oxoethyl 5 (tetradecyloxy) furan-2-carboxylate]
tolerability [5]: well tolerated
LS mean change in noninflammatory lesion counts ([6]; 4.0% QD): −15.3
LS mean change in inflammatory lesion counts ([6]; 4.0% QD): −14.6
percentage of subjects achieving minimum 2-grade improvement in IGA score ([6]; 4.0% QD): 21.6%
LS mean change in noninflammatory lesion counts ([6]; 7.5% BID): −17.5
LS mean change in inflammatory lesion counts ([6]; 7.5% BID): −15.0
percentage of subjects achieving minimum 2-grade improvement in IGA score ([6]; 7.5% BID): 25.9%
LS mean change in noninflammatory lesion counts ([6]; 7.5% QD): −13.4
LS mean change in inflammatory lesion counts ([6]; 7.5% QD): −14.5
